Measurements published in US20060135443A1, “Use of Na*/K*-ATPase inhibitors and antagonists thereof” (Bionaut Pharmaceuticals, Inc., priority 2004, published 2006).
pIC50, pKd: −log10 of the molar value. “Also recorded” adds a separate entry of the source.

Legend:
[1] = test system: A549 (NSCLC) Sentinel Line; experiment: Sentinel Line reporter assay (FACS, FDG); assay type: cell-based, human; conditions: 40 hrs; for cell death / reporter activity: agent alone; for cell death: Sentinel Lines; for reporter activity: mitoxantrone 8 nM, paclitaxel 1.5 nM, carboplatin 15 μM, gemcitabine 2.5 nM, Iressa 4 μM
Method: The expression level of beta-galactosidase gene in sentinel lines was determined by using a fluorescent substrate fluorescein di-B-D-Galactopyranside (FDG, Marker Gene Tech, #M0250) introduced into cells by hypotonic shock. Cleavage by beta-galactosidase results in the production of free fluorescein, which is unable to cross the plasma membrane and is trapped inside the beta-gal positive cells. Briefly, the cells to be analyzed are trypsinized, and resuspended in PBS containing 2 mM FDG (diluted from a 10 mM stock prepared in 8:1:1 mixture of water: ethanol: DMSO). The cells were then shocked for 4 minutes at 37° C. and transferred to FACS tubes containing cold 1×PBS on ice. Samples were kept on ice for 30 minutes and analyzed by FACS in FL1 channel.
Sentinel Line cells with beta-galactosidase reporter gene were plated at 1×10^5 cells/10 cm dish. […] After 40 hrs, the cells were trypsinized and the expression level of reporter gene was determined by FDG loading.
In experiments of FIG. 10, the A549 sentinel line was incubated with Gemcitabine in the presence or absence of indicated Bionaut compounds (including the cardiac glycoside compound BNC4) for 40 hrs. The reporter activity was measured by FACS analysis.

[2] = test system: other receptors involved in blood pressure regulation or hormonal control; conditions: Ferrari et al. 1998; cited from earlier work
[3] = molecular target: purified sodium, potassium ATPase enzyme (Na-K ATPase); conditions: read-out: IC50, displaced ouabain from its binding sites; Ferrari et al. 1998; cited from earlier work
[4] = test system: A549 human non-small-cell-lung carcinoma; experiment: A549 human non-small-cell-lung carcinoma xenograft; assay type: in vivo, nude mice; conditions: for animals with tumor at the end of the experiment: 8 animals per group; for % Weight Change at Day 38 / Final Tumor weight Day 38 (Mean) / % TGI: Carboplatin 100 mg/kg ip qd×1; for % Weight Change at Day 38 / Final Tumor weight Day 38 (Mean): n=8; for % TGI: Day 38, BNC1 20 mg/ml s.c. C.I.
Method: (§1) Female nude mice (nu/nu) between 5 and 6 weeks of age weighing approximately 20 g were implanted subcutaneously (s.c.) by trocar with fragments of human tumors harvested from s.c. grown tumors in nude mice hosts. When the tumors were approximately 60-75 mg in size (about 10-15 days following inoculation), the animals were pair-matched into treatment and control groups. Each group contains 8-10 mice, each of which was ear tagged and followed throughout the experiment.
(§2) The administration of drugs or controls began the day the animals were pair-matched (Day 1). Pumps (Alzet® Model 2002) with a flow rate of 0.5 μl/hr were implanted s.c. between the shoulder blades of each mice. Mice were weighed and tumor measurements were obtained using calipers twice weekly, starting Day 1. These tumor measurements were converted to mg tumor weight by standard formula, (W^2×L)/2. The experiment is terminated when the control group tumor size reached an average of about 1 gram. Upon termination, the mice were weighed, sacrificed and their tumors excised. The tumors were weighed and the mean tumor weight per group was calculated.
Carboplatin (q1d×1) was injected at 100 mg/kg (Carb).

VEGF = VEGF secretion in tumor cells; assay type: cell-based
HIF-1α [5] = experiment: HIF-1α Western blot in tumor cells; assay type: cell-based, human; conditions: Hep3B, Caki-1 or Panc-1 cells under hypoxia
Method: For HIF1-alpha Western blots, Hep3B cells were seeded in growth medium at a density of 7×10^6 cells per 100 mm dish. […] Samples were fractionated on 3-8% Tris-Acetate gel (Invitrogen NUPAGE system) by sodium dodecyl sulfate (SDS)-polyacrylamide gel electropherosis and transferred onto nitrocellulose membrane. […] Anti-Beta-actin monoclonal antibody (Abcam, ab6276-100) was used at a 1:5000 dilution with a 30-minute incubation at room temperature.
The cells were lysed and proteins were resolved by SDS-PAGE and transferred to a nylon membrane.
(§3) Thirty minutes prior to the termination of incubation period, 2,7-dichlorofluorescin diacetate (CFH-DA, […]) was added to the cells and incubated for the last 30 min at 37° C. The ROS levels were determined by FACS analysis.

HIF-1α [6] = experiment: HIF-1α induced under normoxia by PHD inhibitor L-mimosone, Western blot; assay type: cell-based, human; conditions: Hep3B cells, 200 μM L-mimosone, 18 h
Method: Abundance of HIF1α and β-actin was determined by western blotting.

cancer cell lines = experiment: proliferation of cancer cell lines; assay type: cell-based; conditions: for decrease of concentration effective for inhibiting proliferation of cancer cells: in combination with a steroid signal modulator (Casodex)
Text: The concentration at which a cardiac glycoside is effective as part of an antiproliferative treatment may be further decreased by combination with an additional agent that negatively regulates HIF-responsive genes, such as a redox effector or a steroid signal modulator. […] Therefore, in certain embodiments, the invention provides combination therapies of cardiac glycosides with, for example, steroid signal modulators and/or redox effectors. Additionally, cardiac glycosides may be combined with radiation therapy, taking advantage of the radiosensitizing effect that many cardiac glycosides have.

[7] = cited from earlier work; for max. plasma concentration: in vivo
[8] = test system: Panc-1 human pancreatic tumors; experiment: Panc-1 human pancreatic tumor xenograft; assay type: in vivo, nude mice; conditions: Gemcitabine 40 mg/kg q3d×4; for Final Tumor weight Day 25 (Mean): BNC1 20 mg/ml s.c. osmotic pump 0.5 μl/hr, n=8; for % TGI: Day 25, BNC1 20 mg/ml s.c. C.I.
Method: as §1, §2
The control animals received pumps containing vehicle (50% DMSO in DMEM). The mice treated with standard chemotherapy agent received intra-peritoneal injections of Gemcitabine at 40 mg/kg every 3 days for 4 treatments (q3d×4). Each data point represent average tumor weight (n=8) and error bars indicate SEM.
Gem was also included in the experiment as a comparison.

[9] = test system: Caki-1 human renal cancer xenograft; experiment: Caki-1 human renal cancer xenograft; assay type: in vivo, nude mice; conditions: for Final Tumor weight Day 22 (Mean): BNC1 20 mg/ml s.c. pump 0.5 μl/hr, n=10; for Final Tumor weight Day 22 (Mean) / % TGI: Cytoxan 100 or 300 ip; for % TGI: Day 22, BNC1 20 mg/ml s.c. C.I.
Method: as §1, §2
Cytoxan (q1d×1) was injected at 100 mg/kg (Cyt 100) or 300 mg/kg (Cyt 300).

[10] = molecular target: Na^+/K^+-ATPase α peptide isoforms; conditions: four α peptide isoforms, almost all mammalian species; cited from earlier work
[11] = test system: A549(ROS) tumor cell line; experiment: ROS levels by FACS; assay type: cell-based, human; conditions: normoxia, 4 hrs
Method: as §3

## O=C1c2c(O)ccc(O)c2C(=O)c2c(NCCNCCO)ccc(NCCNCCO)c21 [mitoxanthrone, mitoxantrone]
[1]
  cell death: increases
  reporter activity: increases

## CC12CCC(O)CC1CCC1C2CCC2(C)C(O)(c3ccoc3)CCC12O (stereo not drawn) [PST 2238, 17beta-(3-furyl)-5beta-androstane-3beta, 14beta, 17alpha-triol]
[2]
  interaction with other receptors: without interacting
[3]
  pIC50: 5.77

## N.N.O=C([O-])C1(C(=O)[O-])CCC1.[Pt+2] [Carboplatin]
[4]
  animals with tumor at the end of the experiment: all 8
  % TGI: 39.50%
[4]; BNC1 20 mg/ml s.c. pump
  % Weight Change at Day 38: 16%
  Final Tumor weight Day 38 (Mean): 509.75 mg
[1]
  cell death: increases
  reporter activity: increases

## CC(=O)O[C@H]1C(=O)[C@@]2(C)[C@H]([C@H](OC(=O)c3ccccc3)[C@]3(O)C[C@H](OC(=O)[C@H](O)[C@@H](NC(=O)c4ccccc4)c4ccccc4)C(C)=C1C3(C)C)[C@]1(OC(C)=O)CO[C@@H]1C[C@@H]2O [paclitaxel]
[1]
  cell death: increases
  reporter activity: increases

## COc1cc2ncnc(Nc3ccc(F)c(Cl)c3)c2cc1OCCCN1CCOCC1 [Iressa]
[1]
  reporter activity: reduction

## C[C@@H]1O[C@@H](O[C@@H]2C=C3CC[C@@H]4[C@H](CC[C@]5(C)[C@@H](c6ccc(=O)oc6)CC[C@]45O)[C@@]3(C)CC2)[C@H](O)[C@H](O)[C@H]1O [BNC4, proscillaridin]
VEGF
  secretion of the angiogenesis factor VEGF: inhibits
HIF-1α [5]
  potency in inhibiting HIF-1α expression relative to BNC1: about 10 times
[1]; incubated with Gemcitabine plus compound
  Gemcitabine-induced stress response (reporter activity): significantly shift the reporter activity to the left
HIF-1α [6]
  HIF-1α accumulation induced by L-mimosone: blocks HIF-1α induction; also recorded: eliminated HIF-1α accumulation
Cancer cell lines
  decrease of concentration effective for inhibiting proliferation of cancer cells: 5 fold
Cancer cell lines; test system not named at the place, read-out: predicted IC50
  IC50: 2 to 8 ng/mL
[7]; according to the literature
  plasma half-life in human: about 40 hours
[7]
  max. plasma concentration: about 0.001 μg/mL

## Nc1ccn([C@@H]2O[C@H](CO)[C@@H](O)C2(F)F)c(=O)n1 [Gemcitabine]
[8]
  Final Tumor weight Day 25 (Mean): 701.3 mg
  % TGI: 37.40%
[1]
  reporter activity: elevated reporter activity

## O=P1(N(CCCl)CCCl)NCCCO1 (centres unmarked) [Cytoxan]
[9]
  Final Tumor weight Day 22 (Mean): 769 mg
  % TGI: 54.70%
[9]; listed as Cytoxan300
  Final Tumor weight Day 22 (Mean): 93.7 mg
  % TGI: 94.48%

## C[C@@H]1O[C@@H](O[C@H]2C[C@@H](O)[C@]3(CO)[C@H]4[C@H](O)C[C@]5(C)[C@@H](C6=CC(=O)OC6)CC[C@]5(O)[C@@H]4CC[C@]3(O)C2)[C@H](O)[C@H](O)[C@H]1O [BNC1, ouabain]
[8]
  Final Tumor weight Day 25 (Mean): 200 mg
  % TGI: 82.15%
[8]; BNC1 20 mg/ml s.c. pump
  tumor growth (in words): significantly reduce tumor growth
VEGF
  secretion of the angiogenesis factor VEGF: inhibits
[10]
  pKd: ≥ 9.00
[4]
  animals with tumor at the end of the experiment: none of the experimental animals showed any signs of tumor
  % TGI: 100.00%
[4]; BNC1 20 mg/ml s.c. pump, Carboplatin 100 mg/kg
  anti-tumor activity (in words): potent anti-tumor activity
[4]; BNC1 20 mg/ml s.c. pump
  % Weight Change at Day 38: 21%
  Final Tumor weight Day 38 (Mean): 0.0 mg
[11]
  ROS production: induces ROS production
Cancer cell lines
  decrease of concentration effective for inhibiting proliferation of cancer cells: 5 fold
[7]
  max. plasma concentration: about 0.03 μg/mL
[9]
  Final Tumor weight Day 22 (Mean): 314.9 mg
  % TGI: 81.45%
[9]; BNC1 20 mg/ml s.c. pump, Cytoxan 100 or 300 mg/kg
  anti-tumor activity (in words): potent anti-tumor agent when used alone
